Legend:
[1] = test system: murine fibroblast (NIH-3T3) cells; experiment: MTT cytotoxicity assay in murine fibroblasts; type: cell-based
Procedure: Next, the medium was removed and various concentrations (25–800 µg/mL) of samples reconstituted in 3% DMSO were applied. DMSO (3%) was used as a control. The plates were incubated for 24 h. Next, 15 µL of MTT solution (5 mg/mL in phosphate buffer) was added to each well and the plates were incubated for 2 h. Medium was discarded and 100 µL of DMSO was added to each well. Absorbance was determined using a spectrophotometer with a microplate reader at 595 nm (Molecular Devices Corporation, Sunnyvale, CA, USA).

[2] = test system: 49-day-old S. mansoni adult worms; experiment: In vitro experiments with adult worms of S. mansoni (mortality, motor activity); type: cell-based, Schistosoma mansoni; conditions: for Dead Worms (%) F / Motor Activity Reduction (%) Significant F / Motor Activity Reduction (%) Slight F: female worms; for Dead Worms (%) M / Motor Activity Reduction (%) Significant M / Motor Activity Reduction (%) Slight M: male worms
Procedure: The Belo Horizonte (BH) strain of S. mansoni was maintained in Biomphalaria glabrata snails and Mesocricetus auratus hamsters at the Adolfo Lutz Institute (São Paulo, Brazil) according to standard procedures. Detailed methods for the infection of molluscs and hamsters, as well as for the recovery of parasites, were as described previously. Briefly, the intermediate host snails were exposed to light for approximately 3 h and cercariae of S. mansoni were subsequently harvested. […] All animals were handled in strict accordance with good animal practice as defined by the Animal Use Ethics Committee. The preparations and culture of schistosomes was performed as previously described. Briefly, hamsters were killed 49 days after infection for the recovery of adult schistosomes. Next, fresh adult worm pairs (male and female) were washed and placed in a 24-well culture plate (TPP, St. […] Adult schistosomes were maintained continuously in medium (with or without drugs) for 96 h as described below. In vitro assays in S. mansoni adults were performed with mated males and females. The worm pairs obtained from the infusion hamsters were washed twice with RPMI 1640 medium containing 200 U/mL penicillin, 200 μg/mL streptomycin and 2 μg/mL amphotericin B (Vitrocell, Campinas, Brazil). The mated parasites were then transferred into 24-well cell culture plates (TPP, St. […] Cultures of adult worms were monitored by microscopy or magnifying glass. The effect of the drug was assessed with emphasis on changes in worm motor activity and death of worms as previously described.

[3] = test system: mouse BALB/cN macrophage (J774A.1) cell line; experiment: Cell viability by flow cytometry in macrophages; conditions: 24 h, 25, 100 and 400 µg/mL, vs DMEM control

For COc1cc(/C=C/C(=O)N(C(=O)NC2CCCCC2)C2CCCCC2)cc(OC)c1OC [Compound 1M], the “effect on NIH-3T3 cell viability (in words)” value ([1]; MTT, 24 h exposure, 25 to 800 µg/mL) was “considerable reduction in cell viability at concentrations of 400 and 800 μg/mL”, the Emax at 800 µg/mL ([1]; Mus musculus, NIH3T3, 24 h, decrease in cell viability at the maximum concentration tested (800 μg/mL), NIH-3T3, 24 h) was 70.9 ± 1.2% and the “Dead Worms (%) F” value ([2]; 5 µM, 24 h) was 0%. For the same compound, the “Motor Activity Reduction (%) Significant F” value ([2]; 5 µM, 24 h) was 0%, the “Motor Activity Reduction (%) Slight F” value ([2]; 5 µM, 24 h) was 0% and the “Dead Worms (%) M” value ([2]; 5 µM, 24 h) was 0%. The “Motor Activity Reduction (%) Significant M” value ([2]; 5 µM, 24 h) was 0%, the “Motor Activity Reduction (%) Slight M” value ([2]; 5 µM, 24 h) was 0% and the “Dead Worms (%) F” value ([2]; 5 µM, 48 h) was 0%. For the same compound, the “Motor Activity Reduction (%) Significant F” value ([2]; 5 µM, 48 h) was 0%, the “Motor Activity Reduction (%) Slight F” value ([2]; 5 µM, 48 h) was 0% and the “Dead Worms (%) M” value ([2]; 5 µM, 48 h) was 0%. For the same compound, the “Motor Activity Reduction (%) Significant M” value ([2]; 5 µM, 48 h) was 0%, the “Motor Activity Reduction (%) Slight M” value ([2]; 5 µM, 48 h) was 0% and the “Dead Worms (%) F” value ([2]; 5 µM, 72 h) was 0%. The “Motor Activity Reduction (%) Significant F” value ([2]; 5 µM, 72 h) was 0%, the “Motor Activity Reduction (%) Slight F” value ([2]; 5 µM, 72 h) was 0% and the “Dead Worms (%) M” value ([2]; 5 µM, 72 h) was 0%. The “Motor Activity Reduction (%) Significant M” value ([2]; 5 µM, 72 h) was 0%, the “Motor Activity Reduction (%) Slight M” value ([2]; 5 µM, 72 h) was 0% and the “Dead Worms (%) F” value ([2]; 5 µM, 96 h) was 0%. For the same compound, the “Motor Activity Reduction (%) Significant F” value ([2]; 5 µM, 96 h) was 0%, the “Motor Activity Reduction (%) Slight F” value ([2]; 5 µM, 96 h) was 0% and the “Dead Worms (%) M” value ([2]; 5 µM, 96 h) was 0%. The “Motor Activity Reduction (%) Significant M” value ([2]; 5 µM, 96 h) was 0%, the “Motor Activity Reduction (%) Slight M” value ([2]; 5 µM, 96 h) was 0% and the “Dead Worms (%) F” value ([2]; 10 µM, 24 h) was 0%. The “Motor Activity Reduction (%) Significant F” value ([2]; 10 µM, 24 h) was 0%, the “Motor Activity Reduction (%) Slight F” value ([2]; 10 µM, 24 h) was 0% and the “Dead Worms (%) M” value ([2]; 10 µM, 24 h) was 0%. For the same compound, the “Motor Activity Reduction (%) Significant M” value ([2]; 10 µM, 24 h) was 0%, the “Motor Activity Reduction (%) Slight M” value ([2]; 10 µM, 24 h) was 0% and the “Dead Worms (%) F” value ([2]; 10 µM, 48 h) was 0%. For the same compound, the “Motor Activity Reduction (%) Significant F” value ([2]; 10 µM, 48 h) was 0%, the “Motor Activity Reduction (%) Slight F” value ([2]; 10 µM, 48 h) was 0% and the “Dead Worms (%) M” value ([2]; 10 µM, 48 h) was 0%. The “Motor Activity Reduction (%) Significant M” value ([2]; 10 µM, 48 h) was 0%, the “Motor Activity Reduction (%) Slight M” value ([2]; 10 µM, 48 h) was 0% and the “Dead Worms (%) F” value ([2]; 10 µM, 72 h) was 0%. For the same compound, the “Motor Activity Reduction (%) Significant F” value ([2]; 10 µM, 72 h) was 0%, the “Motor Activity Reduction (%) Slight F” value ([2]; 10 µM, 72 h) was 0% and the “Dead Worms (%) M” value ([2]; 10 µM, 72 h) was 0%. For the same compound, the “Motor Activity Reduction (%) Significant M” value ([2]; 10 µM, 72 h) was 0%, the “Motor Activity Reduction (%) Slight M” value ([2]; 10 µM, 72 h) was 0% and the “Dead Worms (%) F” value ([2]; 10 µM, 96 h) was 0%. For the same compound, the “Motor Activity Reduction (%) Significant F” value ([2]; 10 µM, 96 h) was 0%, the “Motor Activity Reduction (%) Slight F” value ([2]; 10 µM, 96 h) was 0% and the “Dead Worms (%) M” value ([2]; 10 µM, 96 h) was 0%. For the same compound, the “Motor Activity Reduction (%) Significant M” value ([2]; 10 µM, 96 h) was 0%, the “Motor Activity Reduction (%) Slight M” value ([2]; 10 µM, 96 h) was 0% and the “Dead Worms (%) F” value ([2]; 25 µM, 24 h) was 0%. For the same compound, the “Motor Activity Reduction (%) Significant F” value ([2]; 25 µM, 24 h) was 0%, the “Motor Activity Reduction (%) Slight F” value ([2]; 25 µM, 24 h) was 0% and the “Dead Worms (%) M” value ([2]; 25 µM, 24 h) was 0%. For the same compound, the “Motor Activity Reduction (%) Significant M” value ([2]; 25 µM, 24 h) was 0%, the “Motor Activity Reduction (%) Slight M” value ([2]; 25 µM, 24 h) was 0% and the “Dead Worms (%) F” value ([2]; 25 µM, 48 h) was 0%. For the same compound, the “Motor Activity Reduction (%) Significant F” value ([2]; 25 µM, 48 h) was 0%, the “Motor Activity Reduction (%) Slight F” value ([2]; 25 µM, 48 h) was 0% and the “Dead Worms (%) M” value ([2]; 25 µM, 48 h) was 0%. For the same compound, the “Motor Activity Reduction (%) Significant M” value ([2]; 25 µM, 48 h) was 0%, the “Motor Activity Reduction (%) Slight M” value ([2]; 25 µM, 48 h) was 0% and the “Dead Worms (%) F” value ([2]; 25 µM, 72 h) was 0%. For the same compound, the “Motor Activity Reduction (%) Significant F” value ([2]; 25 µM, 72 h) was 0%, the “Motor Activity Reduction (%) Slight F” value ([2]; 25 µM, 72 h) was 0% and the “Dead Worms (%) M” value ([2]; 25 µM, 72 h) was 0%. For the same compound, the “Motor Activity Reduction (%) Significant M” value ([2]; 25 µM, 72 h) was 0%, the “Motor Activity Reduction (%) Slight M” value ([2]; 25 µM, 72 h) was 0% and the “Dead Worms (%) F” value ([2]; 25 µM, 96 h) was 0%. The “Motor Activity Reduction (%) Significant F” value ([2]; 25 µM, 96 h) was 0%, the “Motor Activity Reduction (%) Slight F” value ([2]; 25 µM, 96 h) was 0% and the “Dead Worms (%) M” value ([2]; 25 µM, 96 h) was 0%. The “Motor Activity Reduction (%) Significant M” value ([2]; 25 µM, 96 h) was 0%, the “Motor Activity Reduction (%) Slight M” value ([2]; 25 µM, 96 h) was 0% and the “Dead Worms (%) F” value ([2]; 50 µM, 24 h) was 0%. The “Motor Activity Reduction (%) Significant F” value ([2]; 50 µM, 24 h) was 0%, the “Motor Activity Reduction (%) Slight F” value ([2]; 50 µM, 24 h) was 0% and the “Dead Worms (%) M” value ([2]; 50 µM, 24 h) was 0%. The “Motor Activity Reduction (%) Significant M” value ([2]; 50 µM, 24 h) was 0%, the “Motor Activity Reduction (%) Slight M” value ([2]; 50 µM, 24 h) was 0% and the “Dead Worms (%) F” value ([2]; 50 µM, 48 h) was 0%. For the same compound, the “Motor Activity Reduction (%) Significant F” value ([2]; 50 µM, 48 h) was 0%, the “Motor Activity Reduction (%) Slight F” value ([2]; 50 µM, 48 h) was 0% and the “Dead Worms (%) M” value ([2]; 50 µM, 48 h) was 0%. For the same compound, the “Motor Activity Reduction (%) Significant M” value ([2]; 50 µM, 48 h) was 0%, the “Motor Activity Reduction (%) Slight M” value ([2]; 50 µM, 48 h) was 0% and the “Dead Worms (%) F” value ([2]; 50 µM, 72 h) was 0%. The “Motor Activity Reduction (%) Significant F” value ([2]; 50 µM, 72 h) was 0%, the “Motor Activity Reduction (%) Slight F” value ([2]; 50 µM, 72 h) was 0% and the “Dead Worms (%) M” value ([2]; 50 µM, 72 h) was 0%. For the same compound, the “Motor Activity Reduction (%) Significant M” value ([2]; 50 µM, 72 h) was 0%, the “Motor Activity Reduction (%) Slight M” value ([2]; 50 µM, 72 h) was 0% and the “Dead Worms (%) F” value ([2]; 50 µM, 96 h) was 0%. The “Motor Activity Reduction (%) Significant F” value ([2]; 50 µM, 96 h) was 0%, the “Motor Activity Reduction (%) Slight F” value ([2]; 50 µM, 96 h) was 0% and the “Dead Worms (%) M” value ([2]; 50 µM, 96 h) was 0%. The “Motor Activity Reduction (%) Significant M” value ([2]; 50 µM, 96 h) was 0%, the “Motor Activity Reduction (%) Slight M” value ([2]; 50 µM, 96 h) was 0% and the “activity against S. mansoni adult worms (in words)” value ([2]; analogues 50, 25, 10 and 5 μM, piplartine 5 and 10 μM, up to 96 h) was “did not present biological activity against the S. mansoni parasite”. For the same compound, the “effect on J774A.1 cell viability (in words)” value [3] was “significantly altered (p < 0.05) cell viability in comparison with the negative control, but not in a toxic manner”.
